Laboratory results published in ChEMBL document CHEMBL3421629, “Pyrazole phenylcyclohexylcarbamates as inhibitors of human fatty acid amide hydrolases (FAAH)” (Eur J Med Chem, 2015).

Key:
[1] = molecular target: T1, Fatty-acid amide hydrolase 1 (Homo sapiens, UniProt O00519); experiment: Inhibition of human recombinant FAAH using AMC arachidonoyl amide as substrate after 30 mins by fluorescence assay
T1 sequence (O00519 whole entry): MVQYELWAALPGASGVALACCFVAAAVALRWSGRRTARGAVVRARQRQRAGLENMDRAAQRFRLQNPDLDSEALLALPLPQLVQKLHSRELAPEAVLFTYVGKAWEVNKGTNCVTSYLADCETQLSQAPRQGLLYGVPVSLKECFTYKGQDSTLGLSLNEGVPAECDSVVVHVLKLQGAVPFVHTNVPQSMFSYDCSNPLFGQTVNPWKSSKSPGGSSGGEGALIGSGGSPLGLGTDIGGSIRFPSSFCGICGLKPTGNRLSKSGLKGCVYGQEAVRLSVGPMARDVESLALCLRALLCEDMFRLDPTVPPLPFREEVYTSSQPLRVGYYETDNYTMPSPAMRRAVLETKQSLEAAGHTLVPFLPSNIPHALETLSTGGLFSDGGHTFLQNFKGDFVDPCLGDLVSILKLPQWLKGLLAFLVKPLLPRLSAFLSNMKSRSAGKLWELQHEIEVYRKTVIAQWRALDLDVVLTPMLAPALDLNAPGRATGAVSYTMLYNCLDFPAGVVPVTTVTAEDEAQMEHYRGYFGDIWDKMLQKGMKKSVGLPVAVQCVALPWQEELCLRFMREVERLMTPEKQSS

Monoglyceride lipase = molecular target: T2, Monoglyceride lipase (Homo sapiens, UniProt Q99685); experiment: Inhibition of human recombinant MAGL using 4-nitrophenylacetate as substrate after 30 mins
T2 sequence (Q99685 whole entry): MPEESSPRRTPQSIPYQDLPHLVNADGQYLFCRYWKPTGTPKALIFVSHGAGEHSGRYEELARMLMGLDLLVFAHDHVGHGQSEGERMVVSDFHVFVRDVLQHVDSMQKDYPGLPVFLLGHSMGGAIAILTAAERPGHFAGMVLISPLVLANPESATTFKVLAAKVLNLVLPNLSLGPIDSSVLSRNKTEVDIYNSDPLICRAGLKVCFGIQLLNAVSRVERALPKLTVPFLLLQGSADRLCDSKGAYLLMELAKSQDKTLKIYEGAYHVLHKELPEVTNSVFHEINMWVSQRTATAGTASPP

Homo sapiens = species on record: Homo sapiens; experiment: Selectivity index, ratio of IC50 for human recombinant MAGL to IC50 for human recombinant FAAH
[2] = molecular target: T1, Fatty-acid amide hydrolase 1; experiment: Inhibition of human recombinant FAAH using AMC arachidonoyl amide as substrate preincubated with protein for 0 min followed by substrate addition by fluorescence assay
[3] = molecular target: T1, Fatty-acid amide hydrolase 1; experiment: Inhibition of human recombinant FAAH using AMC arachidonoyl amide as substrate preincubated with protein for 30 mins followed by substrate addition by fluorescence assay
[4] = molecular target: T1, Fatty-acid amide hydrolase 1; experiment: Inhibition of human recombinant FAAH using AMC arachidonoyl amide as substrate preincubated with protein for 60 mins followed by substrate addition by fluorescence assay

SMILES	IC50 [1]	also measured
CCOC(=O)c1cc(-c2cccc(OC(=O)NC3CCCCC3)c2)n(-c2ccc(C)cc2)n1	29 nM	IC50 (Monoglyceride lipase): 34000 nM; Ratio IC50 (Homo sapiens): 1190
CCOC(=O)c1cc(-c2cccc(OC(=O)NC3CCCCC3)c2)n(Cc2ccccc2)n1	70 nM	
CCOC(=O)c1cc(-c2ccc(OC(=O)NC3CCCCC3)cc2)nn1C	316 nM	
NC(=O)c1cc(-c2ccc(OC(=O)NC3CCCCC3)cc2)n(-c2ccccc2)n1	71 nM	
COc1ccc(-n2nc(C(N)=O)cc2-c2cccc(OC(=O)NC3CCCCC3)c2)cc1	743 nM	
CCN(CC)C(=O)c1cc(-c2cccc(OC(=O)NC3CCCCC3)c2)n(-c2ccccc2)n1	448 nM	
CCOC(=O)c1cc(-c2ccc(OC(=O)NC3CCCCC3)cc2)n(CC)n1	214 nM	
CCOC(=O)c1cc(-c2cccc(OC(=O)NC3CCCCC3)c2)nn1-c1ccccc1	539 nM	
CCCCCCNC(=O)Oc1cccc(-c2cc(C(=O)OCCC)nn2-c2ccccc2)c1	101 nM	
CCOC(=O)c1cc(-c2ccc(OC(=O)NC3CCCCC3)cc2)nn1CC	603 nM	
CCOC(=O)c1cc(-c2ccc(OC(=O)NC3CCCCC3)cc2)nn1-c1ccccc1	592 nM	
CCOC(=O)c1cc(-c2cccc(OC(=O)NC3CCCCC3)c2)nn1C	227 nM	
O=C(NC1CCCCC1)Oc1cccc(-c2cc(CO)nn2-c2ccccc2)c1	462 nM	
CCOC(=O)c1cc(-c2ccc(OC(=O)NC3CCCCC3)cc2)nn1-c1ccc(OC)cc1	159 nM	
O=C(NC1CCCCC1)Oc1cccc(-c2cc(C(=O)O)nn2-c2ccccc2)c1	2270 nM	
CCOC(=O)c1cc(-c2cccc(OC(=O)NC3CCCCC3)c2)n(-c2ccccc2)n1	11 nM	IC50 (Monoglyceride lipase): 21000 nM; Ratio IC50 (Homo sapiens): 1840
CCCCCCNC(=O)Oc1cccc(-c2cc(C(=O)OCC)nn2-c2ccccc2)c1	88 nM	
CCOC(=O)c1cc(-c2ccc(OC(=O)NC3CCCCC3)cc2)n(-c2ccccc2)n1	268 nM	
CCOC(=O)c1cc(-c2cccc(OC(=O)NC3CCCCC3)c2)n(-c2ccc(Cl)cc2Cl)n1	123 nM	
CCOC(=O)c1cc(-c2cccc(OC(=O)NC3CCCCC3)c2)nn1-c1ccc(Cl)cc1	353 nM	

SMILES	IC50 [1]	also measured
Cn1nc(C(N)=O)cc1-c1ccc(OC(=O)NC2CCCCC2)cc1	209 nM	
NC(=O)c1cc(-c2cccc(OC(=O)NC3CCCCC3)c2)n(-c2ccc(Cl)cc2)n1	174 nM	
CCOC(=O)c1cc(-c2ccc(OC(=O)NC3CCCCC3)cc2)nn1-c1ccc(Cl)cc1	586 nM	
CC(C)NC(=O)c1cc(-c2cccc(OC(=O)NC3CCCCC3)c2)n(-c2ccccc2)n1	232 nM	
CCOC(=O)c1cc(-c2cccc(OC(=O)NC3CCCCC3)c2)n(-c2ccc([N+](=O)[O-])cc2)n1	78 nM	
CCOC(=O)c1cc(-c2cccc(OC(=O)NC3CCCCC3)c2)nn1CC	507 nM	
CCOC(=O)c1cc(-c2cccc(OC(=O)NC3CCCCC3)c2)n(-c2ccc(OC)cc2)n1	103 nM	
O=C(NC1CCCCC1)Oc1cccc(-c2cc(C(=O)NC3CCCCC3)nn2-c2ccccc2)c1	288 nM	
CCOC(=O)c1cc(-c2cccc(OC(=O)NC3CCCCC3)c2)nn1-c1ccc(OC)cc1	407 nM	
CCOC(=O)c1cc(-c2cccc(OC(=O)NC3CCCCC3)c2)n(C)n1	303 nM	
CCOC(=O)c1cc(-c2cccc(OC(=O)NC3CCCCC3)c2)n(-c2ccc(Cl)cc2)n1	17 nM	IC50 (Monoglyceride lipase): 83000 nM; Ratio IC50 (Homo sapiens): 4900; IC50 [2]: 15 nM; IC50 [3]: 17 nM; IC50 [4]: 18 nM
CCCOC(=O)c1cc(-c2cccc(OC(=O)NC3CCCCC3)c2)n(-c2ccccc2)n1	27 nM	IC50 (Monoglyceride lipase): 38000 nM; Ratio IC50 (Homo sapiens): 1380
COC(=O)c1cc(-c2cccc(OC(=O)NC3CCCCC3)c2)n(-c2ccccc2)n1	18 nM	IC50 (Monoglyceride lipase): 49000 nM; Ratio IC50 (Homo sapiens): 2750
CCOC(=O)c1cc(-c2ccc(OC(=O)NC3CCCCC3)cc2)n(C)n1	81 nM	
CCOC(=O)c1cc(-c2cccc(OC(=O)NC3CCCCC3)c2)n(CC)n1	101 nM	
NC(=O)c1cc(-c2cccc(OC(=O)NC3CCCCC3)c2)n(-c2ccccc2)n1	169 nM	
NC(=O)c1cc(-c2ccc(OC(=O)NC3CCCCC3)cc2)n(-c2ccc(Cl)cc2)n1	172 nM	
CCOC(=O)c1cc(-c2cccc(OC(=O)NC3CCCCC3)c2)n(-c2ccc(C(F)(F)F)cc2)n1	132 nM	
CCOC(=O)c1cc(-c2ccc(OC(=O)NC3CCCCC3)cc2)n(-c2ccc(Cl)cc2)n1	281 nM	
COc1nn(-c2ccc(NC(=O)OCc3ccccc3)c(C)c2)c(=O)o1	14 nM	IC50 [2]: 13 nM; IC50 [3]: 3.5 nM; IC50 [4]: 1.9 nM
